Reference: US10493074B2, “Specific trifluoroethyl quinoline analogue for use in the treatment of Sjögren's syndrome” (UCB Biopharma SPRL, priority 2015, dated 2019)

Columns and labels:
[1] = test system: T and B cells in cannulated salivary glands; assay: FACS analysis of lymphocyte profile in salivary glands, inducible murine model of ectopic lymphoid tissue formation (Sjögren's syndrome model); type: in vivo, mice (C57BL/6); conditions: for number of T and B cells in cannulated salivary glands: day 15 post-cannulation, vs vehicle
Method: N-{(R)-1-[8-Chloro-2-(1-oxypyridin-3-yl)quinolin-3-yl]-2,2,2-trifluoroethyl}-pyrido[3,2-d]pyrimidin-4-ylamine [hereinafter referred to as “Compound (A)”] was investigated in vivo in an inducible model of ectopic lymphoneogenesis in murine salivary glands that mimics Sjögren's syndrome. The results obtained are depicted in the accompanying drawings, in which:
(§1) Compound (A) was assessed in the in vivo murine model of inducible ectopic lymphoid tissue formation described by M. Bombardieri et al. in J. Immunol., 2012, 189, 3767-3776, which is a recognised animal model of Sjögren's syndrome.
(§2) Briefly, wild type (C57BL/6) mice were given replication-defective adenovirus 5 (AdV5) (10^8 p.f.u.) via retrograde cannulation of submandibular gland excretory ducts and sacrificed at specific time points post-cannulation. Compound (A), or vehicle control, was administered by gavage daily both prophylactically and therapeutically, starting at either day 0 or day 3 post-cannulation respectively. In order to assess immune cell status in isolated murine salivary glands, flow cytometry on single cell suspensions and quantitative real time PCR were used to evaluate protein and mRNA expression in the samples.
Replication-defective AdV5-infused salivary glands from mice dosed with either Compound (A) or vehicle were isolated from culled mice at different time points. Glands were dissected and placed in RPMI-1640 (with 2% FCS) (1 mL) on ice. Once all salivary glands were collected, RPMI-1640 was removed and replaced with enzyme mix (RMPI with 2% FCS, 0.8 mg/mL Dispase, 0.2 mg/mL Collagenase P, and 0.1 mg/mL DNase I) (2 mL). Salivary glands were cut into small pieces and tubes were incubated at 37° C. in a water bath, with magnetic stirrers. After 20 minutes, salivary gland fragments were very gently pipetted, using a 1 mL pipette, to disrupt the tissue further and release most cells. The mixture was replaced in the water bath and large fragments were allowed to settle for 30 s, after which time the enzyme mix was removed. […] Cells were filtered through 70 μm nylon mesh and counted using a haemocytometer. […]

[2] = test system: TLO (tertiary lymphoid organ) associated genes; assay: Quantitative RT-PCR of TLO associated genes in salivary glands, inducible murine model of ectopic lymphoid tissue formation (Sjögren's syndrome model); type: in vivo, mice (C57BL/6)
Method: Quantitative RT-PCR analysis of mRNA transcripts coding for indicated genes, normalised to housekeeping gene. The relative expression values presented as RQ were calibrated with day 0 post-cannulation salivary gland values.
as §1, §2

[O-][n+]1cccc(-c2nc3c(Cl)cccc3cc2[C@@H](Nc2ncnc3cccnc23)C(F)(F)F)c1 [Compound (A), N-{(R)-1-[8-Chloro-2-(1-oxypyridin-3-yl)quinolin-3-yl]-2,2,2-trifluoroethyl}-pyrido[3,2-d]pyrimidin-4-ylamine]
disaggregation of the inflammatory foci and resolution of salivary gland inflammation ([1]; dosed either prophylactically or therapeutically, overall conclusion from the model): effective
number of T and B cells in cannulated salivary glands ([1]; treated prophylactically from day 0, by gavage daily, flow cytometry (FIG. 1)): significant decrease
number of T and B cells in cannulated salivary glands ([1]; treated therapeutically from day 3 post-cannulation, by gavage daily, flow cytometry (FIG. 2)): significant decrease
gene expression profile of TLO associated genes ([2]; treated prophylactically from day 0, day 15 post-cannulation, vs vehicle (FIGS. 3 & 4)): significantly inhibited
gene expression profile of TLO associated genes ([2]; treated therapeutically from day 3 post-cannulation, day 15 post-cannulation, vs vehicle (FIG. 4)): decrease was conserved
